Values of other authors, collected in patent US12691099B2, “Oral formulations of Edaravone and method of manufacturing thereof” (BDR PHARMACEUTICALS INTERNATIONAL PRIVATE LIMITED, priority 2019, dated 2026).
In brackets after ≈: the same amount, converted by molar mass.

How the values were obtained:
[1] = poor solubility in water and lower lipid permeability

CC1=NN(c2ccccc2)C(=O)C1 [Edaravone, 3-methyl-1-phenyl-2-pyrazolin-5-one]
solubility: 25 µg/mL (≈ 144 µM) | BCS class [1]: Class IV
